Source: US7202085B2, “Control of gene expression in eukaryotic cells” (Calgene LLC, priority 1999, dated 2007)
“And” between values parts separate entries of the source, which are not always exact repeats. Equal entries are not always repeated. Where two headings read alike, the source gives them in different places.

Key:
VP16-TraR = test: Transient GUS reporter assay in carrot protoplasts with VP16-TraR effector and tra box reporter; type: cell-based, Agrobacterium tumefaciens; conditions: Table 8: TraA8(4X) +TraR
Source text: Carrot protoplasts were transfected with the TraA8 (4×)-GUS reporter construct with the 35S-VP16-TraR activator gene and tested for GUS induction by application of wild type AHL and the various AHL analogs described in Example 8.

tra box-GUS reporter = tested on: tra box-GUS reporter
Experimental: Plasmids for transfection were isolated and purified using Megaprep plasmid DNA isolation kit (Qiagen). Carrot protoplasts for transfections were prepared from carrot cell suspension culture and transfected with purified DNA as described (Ulmasov et al., Plant Cell 7:1611–1623, 1995). Briefly, 10 μg of the reporter plasmid and 5 μg of the effector plasmid were incubated with 10^6 protoplasts for five minutes at the room temperature in the presence of polyethylene glycol-calcium solution. After diluting approximately 10-fold with the culture medium, the protoplasts were incubated in the dark for 36 hours either in the presence or absence of the inducer 3-oxohexanoyl-homoserine lactone (OHHL, racemic mixture of the L- and D-isomers, purchased from Sigma Chemical Co., St Louis, Mo.). After incubation, protoplasts were collected by low-speed centrifugation, lysed and the level of GUS activity was measured using fluorometric GUS assay (Jefferson et al., EMBO J. 6:3901–3907, 1987).
Ten μg of the reporter plasmid (pMON53031), and indicated amount of the 35S effector plasmid per reaction was used for transfection in triplicate. […] The “− inducer” and “+ inducer” columns are averages of the GUS activities.
These constructs were tested for background GUS activity and TraR responsiveness in carrot protoplasts.

[1] = Table 5 lane 1: tra box (6X), cl.7 alone (35S-CAT), 12.5 μM C8-AHL
[2] = Table 5 lane 3: traA1(3X), cl.35 alone (35S-CAT), 12.5 μM C8-AHL
[3] = Table 5 lane 5: traA2(3X), cl.43 alone (35S-CAT), 12.5 μM C8-AHL
[4] = Table 5 lane 7: traA3(3X), cl.4 alone (35S-CAT), 12.5 μM C8-AHL
[5] = Table 5 lane 9: traA4(3X), cl.23 alone (35S-CAT), 12.5 μM C8-AHL
[6] = Table 5 lane 11: traA5(3X), cl.2 alone (35S-CAT), 12.5 μM C8-AHL
[7] = Table 5 lane 13: traA6(3X), cl.21 alone (35S-CAT), 12.5 μM C8-AHL
[8] = Table 5 lane 15: traA7(3X), cl.15 alone (35S-CAT), 12.5 μM C8-AHL
[9] = Table 5 lane 17: traA8(3X), cl.4 alone (35S-CAT), 12.5 μM C8-AHL
[10] = Table 5 lane 19: traA9(3X), cl.8 alone (35S-CAT), 12.5 μM C8-AHL
[11] = Table 5 lane 21: min-46GUS, 12.5 μM C8-AHL
[12] = Table 6 lane 1: Tra box(3X), cl.5 + CAT, 12.5 μM C8-AHL
[13] = Table 6 lane 3: TraA1(3X), cl.35 + CAT, 12.5 μM C8-AHL
[14] = Table 6 lane 5: TraA2(3X), cl.43 + CAT, 12.5 μM C8-AHL
[15] = Table 6 lane 7: TraA3(3X), cl.4 + CAT, 12.5 μM C8-AHL
[16] = Table 6 lane 9: TraA4(3X), cl.23 + CAT, 12.5 μM C8-AHL
[17] = Table 6 lane 11: TraA5(3X), cl.2 + CAT, 12.5 μM C8-AHL
[18] = Table 6 lane 15: TraA7(3X), cl.15 + CAT, 12.5 μM C8-AHL
[19] = Table 6 lane 17: TraA8(3X), cl.4 + CAT, 12.5 μM C8-AHL
[20] = Table 6 lane 19: TraA9(3X), cl.8 + CAT, 12.5 μM C8-AHL
[21] = Table 6 lane 21: TraA10(3X), cl.17 + CAT, 12.5 μM C8-AHL
[22] = Table 6 lane 23: TraA-1(3X), cl.14 + CAT, 12.5 μM C8-AHL
[23] = Table 6 lane 25: min35S-46-GUS, 12.5 μM C8-AHL
[24] = Table 7 lane 1: S2-46GUS, 12.5 μM C8-AHL
[25] = Table 7 lane 2: TraA8(4X), cl.16 + CAT, 12.5 μM C8-AHL

CCCCCC(=O)CC(=O)N[C@H]1CCOC1=O [C8-HSL, 3-oxooctanoyl-L-homoserine lactone]
1, 2, 3 (replicate GUS activities at the lower concentration) (VP16-TraR; 5 μM): 2820.7 and 3124.7 and 3110.7 | 4, 5, 6 (replicate GUS activities at the higher concentration) (VP16-TraR; 12.5 μM): 4386.9 and 4031.2 and 4010.3 | 1, 2, 3 (replicate GUS activities at the lower concentration) (VP16-TraR; 25 μM): 8183.1 and 7890.1 and 6855.5 | 4, 5, 6 (replicate GUS activities at the higher concentration) (VP16-TraR; 75 μM): 8036.8 and 7647.1 and 8243.2 | +inducer (average GUS activity) (tra box-GUS reporter; Table 4: min35S-GUS, 25 [i M OOHL]): 6.1 | +inducer (average GUS activity) (tra box-GUS reporter; Table 4: pMON53031 alone, 25 [i M OOHL]): 265 | 4, 5, 6 (replicate GUS activities, +inducer) (tra box-GUS reporter; [1]): 569.8 and 647.3 and 643.6 | +inducer (average GUS activity) (tra box-GUS reporter; [1]): 620.2 | 4, 5, 6 (replicate GUS activities, +inducer) (tra box-GUS reporter; [2]): 110.8 and 118.5 and 145.2 | +inducer (average GUS activity) (tra box-GUS reporter; [2]): 124.8 | 4, 5, 6 (replicate GUS activities, +inducer) (tra box-GUS reporter; [3]): 240.6 and 221.1 and 229.7 | +inducer (average GUS activity) (tra box-GUS reporter; [3]): 230.5 | 4, 5, 6 (replicate GUS activities, +inducer) (tra box-GUS reporter; [4]): 89.3 and 94.4 and 103.2 | +inducer (average GUS activity) (tra box-GUS reporter; [4]): 95.6 | 4, 5, 6 (replicate GUS activities, +inducer) (tra box-GUS reporter; [5]): 177.7 and 196.0 and 195.0 | +inducer (average GUS activity) (tra box-GUS reporter; [5]): 189.6 | 4, 5, 6 (replicate GUS activities, +inducer) (tra box-GUS reporter; [6]): 20.6 and 16.2 and 13.1 | +inducer (average GUS activity) (tra box-GUS reporter; [6]): 16.6 | 4, 5, 6 (replicate GUS activities, +inducer) (tra box-GUS reporter; [7]): 73.6 and 64.2 and 76.1 | +inducer (average GUS activity) (tra box-GUS reporter; [7]): 71.3 | 4, 5, 6 (replicate GUS activities, +inducer) (tra box-GUS reporter; [8]): 215.1 and 200.0 and 238.6 | +inducer (average GUS activity) (tra box-GUS reporter; [8]): 217.9 | 4, 5, 6 (replicate GUS activities, +inducer) (tra box-GUS reporter; [9]): 36.3 and 43.3 and 39.8 | +inducer (average GUS activity) (tra box-GUS reporter; [9]): 39.8 | 4, 5, 6 (replicate GUS activities, +inducer) (tra box-GUS reporter; [10]): 32.4 and 35.6 and 36.2 | +inducer (average GUS activity) (tra box-GUS reporter; [10]): 34.7 | 4, 5, 6 (replicate GUS activities, +inducer) (tra box-GUS reporter; [11]): 145.4 and 124.2 and 116.0 | +inducer (average GUS activity) (tra box-GUS reporter; [11]): 128.5 | 4, 5, 6 (replicate GUS activities, +inducer) (tra box-GUS reporter; [12]): 264.6 and 251.9 and 230.9 | +inducer (average GUS activity) (tra box-GUS reporter; [12]): 249.1 | 4, 5, 6 (replicate GUS activities, +inducer) (tra box-GUS reporter; [13]): 70.7 and 54.2 and 42.8 | +inducer (average GUS activity) (tra box-GUS reporter; [13]): 55.9 | 4, 5, 6 (replicate GUS activities, +inducer) (tra box-GUS reporter; [14]): 125.2 and 103.0 and 110.2 | +inducer (average GUS activity) (tra box-GUS reporter; [14]): 112.8 | 4, 5, 6 (replicate GUS activities, +inducer) (tra box-GUS reporter; [15]): 59.2 and 62.8 and 46.4 | +inducer (average GUS activity) (tra box-GUS reporter; [15]): 56.1 | 4, 5, 6 (replicate GUS activities, +inducer) (tra box-GUS reporter; [16]): 87.9 and 86.4 and 85.9 | +inducer (average GUS activity) (tra box-GUS reporter; [16]): 86.7 | 4, 5, 6 (replicate GUS activities, +inducer) (tra box-GUS reporter; [17]): 72.5 and 68.2 and 90.9 | +inducer (average GUS activity) (tra box-GUS reporter; [17]): 77.2 | +inducer (average GUS activity) (tra box-GUS reporter; Table 6 lane 13: TraA6(3X), cl.21 + CAT, 12.5 μM C8-AHL): 3.9 | 4, 5, 6 (replicate GUS activities, +inducer) (tra box-GUS reporter; [18]): 241.3 and 197.1 and 268.5 | +inducer (average GUS activity) (tra box-GUS reporter; [18]): 235.6 | 4, 5, 6 (replicate GUS activities, +inducer) (tra box-GUS reporter; [19]): 121.2 and 148.8 and 115.9 | +inducer (average GUS activity) (tra box-GUS reporter; [19]): 128.7 | 4, 5, 6 (replicate GUS activities, +inducer) (tra box-GUS reporter; [20]): 97.4 and 96.7 and 89.6 | +inducer (average GUS activity) (tra box-GUS reporter; [20]): 94.6 | 4, 5, 6 (replicate GUS activities, +inducer) (tra box-GUS reporter; [21]): 47.1 and 44.2 and 44.1 | +inducer (average GUS activity) (tra box-GUS reporter; [21]): 45.1 | 4, 5, 6 (replicate GUS activities, +inducer) (tra box-GUS reporter; [22]): 19.7 and 23.6 and 17.0 | +inducer (average GUS activity) (tra box-GUS reporter; [22]): 20.1 | 4, 5, 6 (replicate GUS activities, +inducer) (tra box-GUS reporter; [23]): 39.6 and 32.1 and 44.5 | +inducer (average GUS activity) (tra box-GUS reporter; [23]): 38.7 | 4, 5, 6 (replicate GUS activities, +inducer) (tra box-GUS reporter; [24]): 27.2 and 22.7 and 17.4 | +inducer (average GUS activity) (tra box-GUS reporter; [24]): 22.4 | 4, 5, 6 (replicate GUS activities, +inducer) (tra box-GUS reporter; [25]): 20.3 and 25.1 and 18.7 | +inducer (average GUS activity) (tra box-GUS reporter; [25]): 21.3
